Experimental data taken from US9795139B2, “Molecules having pesticidal utility, and intermediates, compositions, and processes, related thereto” (priority 2015, dated 2017).

Key:
Format in all cases: in vivo
[1] = test system: Cabbage Looper (Trichoplusia ni, TRIPNI); assay: Bioassay on Cabbage Looper (CL), 128-well diet tray assay; conditions: 168 h, 50 μg/cm^2 on artificial diet, second instar larvae, 25° C., five to seven days, average of eight wells, read-out: CL % Control (or Mortality) rating
Description: (§1) Certain molecules disclosed in this document were tested against BAW and CL using procedures described in the following examples. In the reporting of the results, the “BAW & CL Rating Table” was used (See Table Section).
Bioassays on CL were conducted using a 128-well diet tray assay. one to five second instar CL larvae were placed in each well (3 mL) of the diet tray that had been previously filled with 1 mL of artificial diet to which 50 μg/cm^2 of the test molecule (dissolved in 50 μL of 90:10 acetone-water mixture) had been applied (to each of eight wells) and then allowed to dry. Trays were covered with a clear self-adhesive cover, vented to allow gas exchange, and held at 25° C., 14:10 light-dark for five to seven days. Percent mortality was recorded for the larvae in each well; activity in the eight wells was then averaged. The results are indicated in the table entitled “Table ABC: Biological Results” (See Table Section).

[2] = test system: Beet Armyworm (Spodoptera exigua, LAPHEG); assay: Bioassay on Beet Armyworm (BAW), 128-well diet tray assay; conditions: 168 h, 50 μg/cm^2 on artificial diet, second instar larvae, 25° C., five to seven days, average of eight wells, read-out: BAW % Control (or Mortality) rating
Description: as §1
Bioassays on BAW were conducted using a 128-well diet tray assay. One to five second instar BAW larvae were placed in each well (3 mL) of the diet tray that had been previously filled with approximately 1.5 mL of artificial diet to which 50 μg/cm^2 of the test molecule (dissolved in 50 μL of 90:10 acetone-water mixture) had been applied (to each of eight wells) and then allowed to dry. Trays were covered with a clear self-adhesive cover, vented to allow gas exchange, and held at 25° C., 14:10 light-dark for five to seven days. Percent mortality was recorded for the larvae in each well; activity in the eight wells was then averaged. The results are indicated in the table entitled “Table ABC: Biological Results” (See Table Section).

[3] = test system: Yellow Fever Mosquito (Aedes aegypti, AEDSAE); conditions: about 1 day-old larvae, 96-well plate from 4000 ppm DMSO master, 3 days at room temperature
Description: Certain molecules disclosed in this document were tested against YFM using procedures described in the following paragraph. In the reporting of the results, the “GPA & YFM Rating Table” was used (See Table Section).
Master plates containing 400 μg of a molecule dissolved in 100 μL of dimethyl sulfoxide (DMSO) (equivalent to a 4000 ppm solution) are used. A master plate of assembled molecules contains 15 μL per well. To this plate, 135 μL of a 90:10 water/acetone mixture is added to each well. A robot is programmed to dispense 15 μL aspirations from the master plate into an empty 96-well shallow plate (“daughter” plate). There are 6 reps (“daughter” plates) created per master. The created “daughter” plates are then immediately infested with YFM larvae.
The day before plates are to be treated, mosquito eggs are placed in Millipore water containing liver powder to begin hatching (4 g. into 400 mL). After the “daughter” plates are created using the robot, they are infested with 220 μL of the liver powder/larval mosquito mixture (about 1 day-old larvae). After plates are infested with mosquito larvae, a non-evaporative lid is used to cover the plate to reduce drying. Plates are held at room temperature for 3 days prior to grading. After 3 days, each well is observed and scored based on mortality. The results are indicated in the table entitled “Table ABC: Biological Results” (See Table Section).

Compound | mortality at 50 µg/cm2 [1] [%] | mortality at 50 µg/cm2 [2] [%] | YFM % Control (or Mortality) rating [3]
Cc1c(Cl)cc([C@H]2[C@H](C(=O)Nc3ccc(Cl)c(C(=O)NC4CC(F)(F)C4)c3)C2(Cl)Cl)cc1Cl (relative stereo) [Molecule F48, trans-2-Chloro-5-(2,2-dichloro-3-(3,5-dichloro-4-methylphenyl)cyclopropanecarboxamido)-N-(3,3-difluorocyclobutyl)benzamide] | 50 to 100 | 50 to 100 | A (80-100)
Cc1cc(Cl)cc([C@H]2[C@H](C(=O)Nc3ccc(Cl)c(C(=O)NC4CC(F)(F)C4)c3)C2(Cl)Cl)c1 (relative stereo) [Molecule F46, trans-2-Chloro-5-(2,2-dichloro-3-(3-chloro-5-methylphenyl)cyclopropanecarboxamido)-N-(3,3-difluorocyclobutyl)benzamide] | 50 to 100 | 50 to 100 | D (No activity noticed in this bioassay)
N#CC1(NC(=O)c2cc(NC(=O)[C@H]3[C@H](c4cc(F)cc(C(F)F)c4)C3(Cl)Cl)ccc2Cl)CC1 (relative stereo) [Molecule F87, trans-2-Chloro-N-(1-cyanocyclopropyl)-5-(2,2-dichloro-3-(3-(difluoromethyl)-5-fluorophenyl)cyclopropane-1-carboxamido)benzamide] | 50 to 100 | 50 to 100 | A (80-100)
O=C(NC1CCC1)c1cc(NC(=O)C2C(c3cc(Cl)c(Cl)c(Cl)c3)C2(Cl)Cl)ccc1Cl (stereo not drawn) [Molecule F42, trans-2-Chloro-N-cyclobutyl-5-(2,2-dichloro-3-(3,4-trichlorophenyl)cyclopropanecarboxamido)benzamide] | 50 to 100 | 50 to 100 | D (No activity noticed in this bioassay)
N#CC1(NC(=O)c2cc(NC(=O)[C@H]3[C@H](c4cccc(C(F)F)c4)C3(Cl)Cl)ccc2Cl)CC1 (relative stereo) [Molecule F91, trans-2-Chloro-N-(1-cyanocyclopropyl)-5-(2,2-dichloro-3-(3-(difluoromethyl)-phenyl)cyclopropane-1-carboxamido)benzamide] | 50 to 100 | 50 to 100 | A (80-100)
Cc1cc([C@H]2[C@H](C(=O)Nc3ccc(Cl)c(C(=O)NC4(C#N)CC4)c3)C2(Cl)Cl)cc(Cl)c1Cl (relative stereo) [Molecule F51, trans-2-Chloro-N-(1-cyanocyclopropyl)-5-(2,2-dichloro-3-(3,4-dichloro-5-methylphenyl)cyclopropanecarboxamido)benzamide] | 50 to 100 | 50 to 100 | D (No activity noticed in this bioassay)
O=C(NC1CCSC1=O)c1cc(NC(=O)C2C(c3cc(Cl)cc(Cl)c3)C2(Cl)Cl)ccc1Cl (stereo not drawn) [PF36, trans-2-Chloro-5-(2,2-dichloro-3-(3,5-dichlorophenyl)cyclopropane-1-carbox-amido)-N-(2-oxotetrahydrothiophen-3-yl)benzamide] | 50 to 100 | 50 to 100 | A (80-100)
O=C(NC1CCC(F)(F)CC1)c1cc(NC(=O)[C@H]2[C@H](c3ccc(Cl)c(Cl)c3)C2(Cl)Cl)ccc1Cl (relative stereo) [Molecule F44, trans-2-Chloro-5-(2,2-dichloro-3-(3,4-dichlorophenyl)cyclopropanecarboxamido)-N-(4,4-difluorocyclohexyl)benzamide] | 50 to 100 | 50 to 100 | A (80-100)
CCN1OC[C@@H](NC(=O)c2cc(NC(=O)C3C(c4cc(Cl)cc(Cl)c4)C3(Cl)Cl)ccc2Cl)C1=O (stereo partly drawn) [PF45, trans-2-Chloro-5-(2,2-dichloro-3-(3,5-dichlorophenyl)cyclopropane-1-carbox-amido)-N—((R)-2-ethyl-3-oxoisoxazolidin-4-yl)benzamide] | 50 to 100 | 50 to 100 | A (80-100)
N#CC1CCC(NC(=O)c2cc(NC(=O)[C@H]3[C@H](c4ccc(Cl)c(Cl)c4)C3(Cl)Cl)ccc2Cl)C1 (relative stereo) [Molecule F36, trans-2-Chloro-N-(3-cyanocyclopentyl)-5-(2,2-dichloro-3-(3,4-dichlorophenyl)cyclopropanecarboxamido)benzamide] | 50 to 100 | 50 to 100 | B (More than 0-Less than 80)
O=C(NC1CC[S+]([O-])C1)c1cc(NC(=O)[C@H]2[C@H](c3cc(Cl)c(Cl)c(Cl)c3)C2(Cl)Cl)ccc1Cl (relative stereo) [PF18, trans-2-chloro-5-(2,2-dichloro-3-(3,4,5-trichloro-phenyl)cyclopropane-1-carboxamido)-N-(1-oxidotetrahydrothiophen-3-yl)-benzamide] | 50 to 100 | 50 to 100 | A (80-100)
O=C(NC1CCC(F)(F)CC1)c1cc(NC(=O)[C@H]2[C@H](c3cc(Cl)cc(Cl)c3)C2(Cl)Cl)ccc1Cl (relative stereo) [Molecule F43, trans-2-Chloro-5-(2,2-dichloro-3-(3,5-dichlorophenyl)cyclopropanecarboxamido)-N-(4,4-difluorocyclohexyl)benzamide] | 50 to 100 | 50 to 100 | A (80-100)
O=C(NC1CC(F)(F)C1)c1cc(NC(=O)[C@H]2[C@H](c3cc(Cl)cc(Cl)c3)C2(Cl)Cl)ccc1Cl [Molecule F73, 2-Chloro-5-((1R,3R)-2,2-dichloro-3-(3,5-dichlorophenyl)cyclopropanecarbox-amido)-N-(3,3-difluorocyclobutyl)benzamide] | 50 to 100 | 50 to 100 | A (80-100)
O=C(NC1COC1)c1cc(NC(=O)[C@H]2[C@H](c3cc(Cl)cc(Cl)c3)C2(Cl)Cl)ccc1Cl (relative stereo) [Molecule F53, trans-2-Chloro-5-(2,2-dichloro-3-(3,5-dichlorophenyl)cyclopropanecarboxamido)-N-(oxetan-3-yl)benzamide] | 50 to 100 | 50 to 100 | A (80-100)
O=C(NC1CCS(=O)(=O)C1)c1cc(NC(=O)[C@H]2[C@H](c3cc(Cl)c(Cl)c(Cl)c3)C2(Cl)Cl)ccc1Cl (relative stereo) [PF19, trans-2-Chloro-5-(2,2-dichloro-3-(3,4,5-trichlorophenyl)cyclopropane-1-carboxamido)-N-(1,1-dioxidotetrahydrothiophen-3-yl)benzamide] | 50 to 100 | 50 to 100 | B (More than 0-Less than 80)
O=C(NC1CCC1)c1cc(NC(=O)[C@H]2[C@H](c3cc(Cl)cc(Cl)c3)C2(Cl)Cl)ccc1Cl (relative stereo) [Molecule F40, trans-2-Chloro-N-cyclobutyl-5-(2,2-dichloro-3-(3,5-dichlorophenyl)cyclopropanecarboxamido)benzamide] | 50 to 100 | 50 to 100 | A (80-100)
CN(C(=O)c1cc(NC(=O)[C@H]2[C@H](c3cc(Cl)c(Cl)c(Cl)c3)C2(Cl)Cl)ccc1Cl)C1(C#N)CC1 (relative stereo) [PF21, trans-2-Chloro-N-(1-cyanocyclopropyl)-5-(2,2-dichloro-3-(3,4,5-trichloro-phenyl)cyclopropane-1-carboxamido)-N-methylbenzamide] | 50 to 100 | 50 to 100 | B (More than 0-Less than 80)
